{"source": "patent US20260183301A1", "about": "“TREATING DISEASES AND DISORDERS WITH IRAK4-MODIFYING COMPOUNDS” (Curis, Inc., priority 2022, published 2026)", "key": {"[1]": {"test_system": "Waldenstrom's macroglobulinemia (WM)", "assay": "Phase 1 dose-escalation study, WM patient case: serum IgM, m-protein and response", "format": "in vivo, human", "description": "The patient remained asymptomatic for over 4 years with a slow increase in m-protein and IgM during that time. By mid-2017 they started to experience increased fatigue. […] There was no evidence of CXCR4 genomic alteration. […] Several options were discussed including clinical trials and standard of care Bruton's tyrosine kinase inhibitor (BTKi) therapy.\nQuantitative immunoglobulins and serum protein electrophoresis were obtained each cycle to determine response to treatment (FIG. 1).\nThe patient initiated treatment at the first dose level, 50 mg. […] Using a standard 3+3 design the subsequent dose level, 100 mg po BID, was cleared per protocol. […] They reported a significant improvement in their quality of life with resolution of fatigue and returned to a rigorous daily exercise program that they had been unable to perform for the last 2 years due to WM-related symptoms. […] Based on evolving safety data at higher dose levels, the patient was escalated to […] starting with cycle 20 in 1/2020."}, "[2]": {"assay": "Oral pharmacokinetics in humans", "format": "in vivo, human", "quoted_text": "Seven dosing cohorts included 50 and 100 mg QD, and 50, 100, 200, 300, or 400 mg BID of daily continuous oral monotherapy in 21-Day cycles. Objective included safety and tolerance (primary), pk/pd and early efficacy (secondary), and biomarker correlations (exploratory). 31 patients with resistant or refractory, advanced NHL have been enrolled."}, "NF-kB p-p50 S337": {"test_system": "NF-kB p-p50 S337", "assay": "Western blot of NF-kB p-p50 S337 in OCL-LY10 cells", "format": "cell-based", "conditions": "3 μM and 10 μM, 48 h, vs DMSO", "experimental": "At 48 h post-treatment, cell lysates were obtained. Protein sample concentration was quantified and equal amount 20 μg of whole protein extract was loaded in each well of SDS-polyacrylamide gel. Cell extracts were separated by 10% SDS-PAGE, transferred to nitrocellulose membrane, and probed as indicated. The following antibodies were used for immunoblot analysis: NF-kB p-p50 S337 (Santa Cruz Biotechnology) and b-actin (Cell Signaling Technology)."}, "THP-1 xerographs": {"test_system": "THP-1 xerographs", "assay": "THP-1 leukemic xerographs: disease burden", "format": "in vivo", "conditions": "6 weeks of treatment at 12.5 mg/kg"}, "[3]": {"assay": "Phase 1 study in AML or high risk MDS: safety (DLT)", "format": "in vivo", "experimental": "This study will be conducted in 2 parts: an initial dose escalation and dose expansion phase. […] Three patients with AML or MDS will be enrolled at the designated dose. If none of the first 3 patients experience a DLT during the first cycle, patients may be enrolled into the next higher dose level of 300 mg bid until a safe and effective RP2D is established.\nThis study is expected to enroll approximately 18 patients to establish the initial RP2D.\nThe major study inclusion and exclusion criteria are as follows: Relapsed or refractory AML (primary or secondary, including treatment-related) after at least one standard treatment (including chemotherapy, re-induction therapy or stem cell transplantation) based on the assessment of the investigator or high/very high risk relapsed/refractory MDS (IPSS—R criteria), following at least 6 cycles of hypomethylating agents [HMA] or evidence of early progression."}}, "note": "Entries after “also recorded” stand apart in the source; their conditions may differ.", "data": [{"smiles": "Cc1cc(-c2nc(C(=O)Nc3cc4oc(N5CCOCC5)nc4nc3N3CC[C@@H](O)C3)co2)ccn1", "note": "[Compound 1, emavusertib]", "values": [{"measurement": "fatigue (baseline symptom)", "setting": "[1]; WM patient, 200 mg po BID, by summer of 2019", "value": "completely resolved"}, {"measurement": "dose dependence of response / tumor burden", "setting": "[1]; human patient with intra-patient dose escalation", "value": "shrinking in a dose-dependent manner; also recorded: dose/response relationship; also recorded: dose-dependent objective response"}, {"measurement": "accumulation", "setting": "[2]; multiple daily single dose administration", "value": "Minimal to no accumulation"}, {"measurement": "absorption", "setting": "[2]; oral administration", "value": "rapidly absorbed"}, {"measurement": "exposure versus dose", "setting": "[2]; oral administration", "value": "dose-proportional increase in exposure"}, {"measurement": "time of maximum plasma concentrations", "setting": "[2]; oral administration, post dose", "value": "0.5 to 8", "unit": "h"}, {"measurement": "accumulation", "setting": "[2]; steady state, multiple twice daily dose administration", "value": "Moderate accumulation"}, {"measurement": "expression of NF-kB p-p50 S337", "setting": "NF-kB p-p50 S337", "value": "downregulated"}, {"measurement": "disease burden", "setting": "THP-1 xerographs", "value": "decreased the disease burden"}, {"measurement": "DLT", "setting": "[3]; Cohort 1, 200 mg BID, 3 patients with hr-MDS, 1st cycle", "value": "No DLT"}, {"measurement": "dose reduction for Gr. 3 dizziness", "setting": "[3]; Cohort 1, 200 mg BID, C2", "value": 1}, {"measurement": "DLT", "setting": "[3]; Cohort 2, 300 mg BID, first 3 patients", "value": "No DLT"}]}]}
